From patent publication US11939340B2, “CDK inhibitors and their use as pharmaceuticals” (Prelude Therapeutics Incorporated, priority 2022, dated 2024)

Assays:
[1] = molecular target: CDK2/Cyclin E2 (Homo sapiens, UniProt P24941); experiment: CDK2/CyclinE2 Enzymatic Activity Assay (TR-FRET); type: biochemical; details: CDK2/CyclinE2 1 nM, ATP 1 mM, read-out: CDK2_El IC50
Procedure, shortened: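 TR-FRET kinase assay with insect-cell CDK2/Cyclin E2 (1 nM) phosphorylating ULight-4E-BP1 (50 nM) at 1 mM ATP in HEPES pH 7.4 buffer; 9-dose 3-fold series preincubated 20 min, reaction started with 10 mM MgCl2, 45 min at 37 °C. EDTA quench, Eu-anti-P-4E-BP1 detection; IC50 from 4-parameter fit.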

[2] = molecular target: T1, CDK4/Cyclin D1 (Homo sapiens, UniProt P11802); experiment: CDK4/CyclinD1 Enzymatic Activity Assay (TR-FRET); type: biochemical; details: CDK4/CyclinD1 1 nM, ATP 2 mM, read-out: CDK4_D1 IC50
T1 construct: purchased ProQinase; host or cells: insect cell
Procedure, shortened: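 Insect-cell-expressed CDK4/Cyclin D1 (1 nM) phosphorylated ULight-4E-BP1 (100 nM) with 2 mM ATP in HEPES pH 7.4 buffer with TCEP, after 20 min compound preincubation; 10 mM MgCl2 started the reaction, run 45 min at 37 °C. EDTA/Eu-anti-phospho-4E-BP1 TR-FRET readout; 9-point IC50 by four-parameter fit.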

[3] = system: pRB in OVCAR3 cells; experiment: pRB ICW Assay in OVCAR3 Cells; type: cell-based; details: Homo sapiens, OVCAR-3, incubated with compound for 2 hours, read-out: OVCAR3 p-RB ICW IC50
Procedure, shortened: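 OVCAR3 cells seeded overnight, then exposed for 2 h at 37 °C to a 9-point half-log compound dilution series in duplicate; 10 μM reference compound defined maximum inhibition. Fixed, permeabilised cells stained in-cell western style with anti-phospho-RB antibody plus DRAQ5 nuclear stain; fluorescence read at 700 and 800 nm.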

T1 sequence (P11802 whole entry): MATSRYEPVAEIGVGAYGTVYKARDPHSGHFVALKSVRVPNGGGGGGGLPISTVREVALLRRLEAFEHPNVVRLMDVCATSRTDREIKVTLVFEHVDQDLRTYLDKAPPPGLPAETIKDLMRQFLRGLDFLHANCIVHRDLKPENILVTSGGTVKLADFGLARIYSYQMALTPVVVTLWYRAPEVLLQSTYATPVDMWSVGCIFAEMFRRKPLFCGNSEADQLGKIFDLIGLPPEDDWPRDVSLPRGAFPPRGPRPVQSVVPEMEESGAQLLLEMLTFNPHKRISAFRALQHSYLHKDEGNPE
T1 sequence (P24385 whole entry partner): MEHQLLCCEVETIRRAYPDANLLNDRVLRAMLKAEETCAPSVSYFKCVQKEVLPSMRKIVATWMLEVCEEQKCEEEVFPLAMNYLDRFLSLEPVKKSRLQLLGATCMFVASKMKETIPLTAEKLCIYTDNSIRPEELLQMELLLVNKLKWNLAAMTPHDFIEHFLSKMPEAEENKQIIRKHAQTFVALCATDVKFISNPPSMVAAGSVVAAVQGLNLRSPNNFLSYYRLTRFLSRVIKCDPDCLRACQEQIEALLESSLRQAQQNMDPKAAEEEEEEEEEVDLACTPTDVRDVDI

IC50 [1]	IC50 [2]	IC50 [3]	Compound
≤ 100 nM	≤ 100 nM	≤ 100 nM	CCC12CC(NC)CN1C(=O)c1cc(-c3nc(NC4CCN(S(=O)(=O)c5cnn(C)c5)CC4)ncc3C(F)(F)F)sc12 (stereo not drawn) [Example 49, 8a-Ethyl-2-(2-((1-((1-methyl-1H-pyrazol-4-yl)sulfonyl)piperidin-4-yl)amino)-5-(trifluoromethyl)pyrimidin-4-yl)-7-(methylamino)-6,7,8,8a-tetrahydro-4H-thieno[2,3-a]pyrrolizin-4-one]
≤ 100 nM	≤ 100 nM	≤ 100 nM	CCC12CC(N(C)C)CN1C(=O)c1cc(-c3nc(NC4CCN(S(=O)(=O)c5cnn(C)c5)CC4)ncc3C(F)(F)F)sc12 (stereo not drawn) [Example 50, 7-(Dimethylamino)-8a-ethyl-2-(2-((1-((1-methyl-1H-pyrazol-4-yl)sulfonyl)piperidin-4-yl)amino)-5-(trifluoromethyl)pyrimidin-4-yl)-6,7,8,8a-tetrahydro-4H-thieno[2,3-a]pyrrolizin-4-one]
